The text below walks through data of patent US20230213525A1, “DETECTING MICROBIAL INFECTION IN WOUNDS” (QUALIZYME DIAGNOSTICS GMBH & CO KG, priority 2016, published 2023).

Common to all, as to type: biochemical
For assay [1], the system named is Catalase. Nature of the assay: Catalase based test, liquid system, sputum. The following applies: room temperature, 30 minutes. The protocol:
For this diagnostic tool: Purpald as substrate for catalase was used. Purpalt is dissolved in water (50-100 mM?). 200 µl of substrate solution are pipetted into a microtiterplate.
(§1) This mixture is incubated at room temperature for 30 minutes.

Assay [2] relates to Catalase. The experiment in a line: Catalase based test, liquid system, wound fluid. Conditions: room temperature, 30 minutes. The protocol: For this diagnostic tool: Purpald as substrate for Catalase was used. Purpalt is dissolved in water (50-100 mM). 200 µl of substrate solution are pipetted into a microtiterplate.
as §1

The target of assay [3] is T1, Myeloperoxidase (Homo sapiens, UniProt P05164).
T1 sequence (P05164 49-745): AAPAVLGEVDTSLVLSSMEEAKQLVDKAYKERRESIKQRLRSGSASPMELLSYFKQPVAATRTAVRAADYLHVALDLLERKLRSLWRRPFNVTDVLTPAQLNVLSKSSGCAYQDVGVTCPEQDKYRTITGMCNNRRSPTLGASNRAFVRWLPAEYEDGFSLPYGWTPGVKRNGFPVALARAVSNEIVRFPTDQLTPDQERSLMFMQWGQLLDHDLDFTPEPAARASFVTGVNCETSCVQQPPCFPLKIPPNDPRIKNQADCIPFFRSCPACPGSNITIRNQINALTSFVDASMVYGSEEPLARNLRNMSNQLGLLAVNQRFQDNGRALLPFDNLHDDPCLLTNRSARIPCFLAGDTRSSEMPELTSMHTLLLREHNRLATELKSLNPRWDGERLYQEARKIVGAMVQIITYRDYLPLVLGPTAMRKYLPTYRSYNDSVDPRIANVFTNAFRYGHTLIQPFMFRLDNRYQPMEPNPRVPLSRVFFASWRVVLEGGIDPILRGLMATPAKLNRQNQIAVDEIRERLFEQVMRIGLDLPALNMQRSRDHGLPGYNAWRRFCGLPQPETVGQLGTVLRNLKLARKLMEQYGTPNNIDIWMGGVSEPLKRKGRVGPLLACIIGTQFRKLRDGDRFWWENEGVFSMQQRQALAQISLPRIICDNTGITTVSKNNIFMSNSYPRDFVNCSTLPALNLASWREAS
The experiment in a line: Myeloperoxidase based test, cellulose based system, sputum. The following applies: filter paper discs, H202, 5 minutes. The protocol: 1.5 µl of H202 (50 mM) and 1.5 µl of the substrates (109 mM ABTS, 454 mM TMB, 230 mM Fast Blue, x mM Guaiacol, x mM 4-Amino-3-methoxy benzoic acid) were incubated on small Whatmann Filterpaper discs.

In the next assay the target is T2, MPO (Homo sapiens, UniProt P05164).
T2 sequence (P05164 49-745): T1 sequence (P05164 49-745)
The experiment in a line: Colorimetric enzyme assay for detection of myeloperoxidase activity. The following applies: 1 mg/mL, pH 6.4, 5 mM H2O2.

The subject of the next assay is Phospholipase C. The experiment in a line: Phospholipase C based test, liquid system, wound fluid. Conditions: room temperature, 30 minutes, visual inspection. The procedure: For this diagnostic tool, p-Nitrophenylphosphorylcholine as substrate for Phospholipase C was used. p-Mtrophenylphosphorylcholine is dissolved in water (50-100 mM). A 250 mM: Tris/HCi buffer with 70% Sorbitol pH 7.2 was used as assay buffer. 230 µl of the buffer and 100 µl of the substrate are pipetted into a microtiterplate.
as §1

Assay [4] concerns Phospholipase A2. Nature of the assay: Phospholipase A2 based test, liquid system, wound fluid. The following applies: room temperature, 30 minutes. The protocol:
Preparation of diagnostic system. For this diagnostic tool, 4-Nitro-3- octanoylbenzoic acid as Phospholipase A2 - substrate was used. 4-Nitro-3-octanoylbenzoic acid (1.7 mM) is dissolved in assay buffer containing 50 mM Tris/HCl buffer pH 7.2, 150 mM KCL and 10 mM CaC12. 190 µl of the buffer are pipetted into a microtiterplate.
as §1

The test system of assay [5] is Phospholipase A2. Nature of the assay: Phospholipase A2 based test, liquid system, sputum. Conditions: room temperature, 30 minutes. The protocol:
For this diagnostic tool, 4-Nitro-3-octanoylbenzoic acid as Phospholipase A2 - substrate was used. 4-Nitro-3-octanoylbenzoic acid (1.7 mM) is dissolved in assay buffer containing 50 mM Tris/HCl buffer pH 7.2, 150 mM KCL and 10 mM CaC12. 190 µl of the buffer are pipetted into a microtiterplate.
as §1

The target in assay [6] is T1, Myeloperoxidase. Nature of the assay: Myeloperoxidase based test, liquid system, sputum. Conditions: succinate buffer pH 5.4, H202, 5 minutes.
Where [7] appears, read: infected sputum samples A, B, C.
Setting [8] is: infected wound fluid samples A, B, C.
Setting [9] is: non infected wound fluid samples D, E, F.
Setting [10] is: non infected sputum samples D, E, F.

Molecules are shown by their SMILES.

For the compound `NNc1n[nH]c(=S)n1N` [Purpald], the Test response entry is recorded as “yellow” in the assay on Catalase [1] (setting [7]); “No colour change” in the assay on Catalase [1] (non-infected sputum samples D, E, F); “yellow” with Catalase [2] (setting [8]); “No colour change” in the assay on Catalase [2] (setting [9]).
Consider `COc1cc(C(=O)O)ccc1N` [Compound 4A3Mba, 4-Amino-3-methoxy benzoic acid], for which the Test response result is “brown” at Myeloperoxidase [3] (infected sputum samples A, B) and “No colour change” at Myeloperoxidase [3] (non infected sputum samples C, D).
Turning to `Nc1ccc(C(=O)O)cc1N` [3,4-Diamino benzoic acid], the “colour of solution upon MPO oxidation” value at MPO is recorded as “turned brownish”.
As to `C[N+](C)(C)CCOP(=O)([O-])Oc1ccc([N+](=O)[O-])cc1` [p-Nitrophenylphosphorylcholine], the Test response entry in the assay on Phospholipase C (setting [8]) is reported as “yellow”; in the assay with Phospholipase C (non-infected wound fluid samples D, E, F) it was “No colour change”.
In the case of `CCCCCCCC(=O)c1cc(C(=O)O)ccc1[N+](=O)[O-]` [4-Nitro-3-octanoylbenzoic acid], the Test response entry in the assay on Phospholipase A2 [4] (setting [8]) is on record as “yellow”; in the assay with Phospholipase A2 [4] (setting [9]), “No colour change”; with Phospholipase A2 [5] (setting [7]), “yellow”; with Phospholipase A2 [5] (setting [10]), “No colour change”.
Take `Cc1cc(-c2cc(C)c(N)c(C)c2)cc(C)c1N` [TMB, 3, 3′, 5, 5′ -Tetramethylbenzidine]: the Test response result at Myeloperoxidase [6] (setting [7]) is on record as “blue”; on Myeloperoxidase [6] (setting [10]) it was “No colour change”.
